Measured values reported in the supplement of paper PMC11562712.

Experiment: first-order primary biodegradation rate constant k (sorption-corrected, fDis-corrected) (d-1); higher = faster biodegradation
Method: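 Modified OECD 309 water-sediment test. River water plus sieved sediment (50 g wet solid/L) from European river segments (DE, CH, ES, EL) was spiked with a mixture of 129 compounds at 1 ug/L each and incubated in the dark at river temperature for 10 days. The water phase was analysed by UHPLC-Orbitrap-MS. The first-order primary biodegradation rate constant k (d-1) is k_observed, corrected for dissipation in sterile sorption controls and divided by the dissolved fraction fDis; it was fitted over 3 replicate incubations. Invalid fits (p > 0.05, n < 5, not available, concentration increase) are excluded.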

[1] = river segment: Germany (DE) H_Contam, incubation temperature 24 °C
[2] = river segment: Germany (DE) T_Contam, incubation temperature 24 °C
[3] = river segment: Germany (DE) T_Pris, incubation temperature 24 °C
[4] = river segment: Greece (EL) A_Contam, incubation temperature 19 °C
[5] = river segment: Greece (EL) G_Contam, incubation temperature 19 °C
[6] = river segment: Greece (EL) G_Pris, incubation temperature 19 °C
[7] = river segment: Spain (ES) C_Contam, incubation temperature 24 °C
[8] = river segment: Spain (ES) F_Pris_Salt, incubation temperature 24 °C
[9] = river segment: Spain (ES) L_Contam, incubation temperature 24 °C
[10] = river segment: Switzerland (CH) C_Contam, incubation temperature 17 °C
[11] = river segment: Switzerland (CH) R_Contam, incubation temperature 17 °C
[12] = river segment: Switzerland (CH) U_Contam, incubation temperature 17 °C
[13] = river segment: Switzerland (CH) U_Pris, incubation temperature 17 °C
[14] = river segment: Greece (EL) L_Contam, incubation temperature 19 °C
[15] = river segment: Spain (ES) B_Contam, incubation temperature 24 °C

| Structure (SMILES) | first-order primary biodegradation rate constant k [1] | first-order primary biodegradation rate constant k [2] | first-order primary biodegradation rate constant k [3] | first-order primary biodegradation rate constant k [4] | first-order primary biodegradation rate constant k [5] | first-order primary biodegradation rate constant k [6] | first-order primary biodegradation rate constant k [7] | first-order primary biodegradation rate constant k [8] | first-order primary biodegradation rate constant k [9] | first-order primary biodegradation rate constant k [10] | first-order primary biodegradation rate constant k [11] | first-order primary biodegradation rate constant k [12] | first-order primary biodegradation rate constant k [13] | first-order primary biodegradation rate constant k [14] | first-order primary biodegradation rate constant k [15] |
| --- | --- | --- | --- | --- | --- | --- | --- | --- | --- | --- | --- | --- | --- | --- | --- |
| Cc1ccc(C)c(OCCCC(C)(C)C(=O)O)c1 [Gemfibrozil] | 0.143 | 0.278 | 0.133 | 0.37 | – | 0.227 | 0.26 | – | 0.327 | 0.237 | – | – | 1.01 | 0.152 | 0.371 |
| CCCCCCCCCCCCN [Dodecylamine] | – | – | – | – | 7.74 | – | – | – | – | – | – | – | – | – | – |
| CCc1cccc(CC)c1N(COC)C(=O)CCl [Alachlor] | 0.0727 | 0.612 | 0.105 | – | – | 0.387 | – | – | 0.12 | 0.0903 | 0.223 | 0.349 | – | 0.568 | 0.115 |
| C=CCOc1ccccc1OCC(O)CNC(C)C (centres undefined) [Oxprenolol] | 0.0433 | 1.9 | 0.0369 | – | 0.0189 | 0.111 | – | 0.426 | 0.142 | 0.0127 | 0.0926 | 0.0534 | 0.0473 | 0.756 | 0.107 |

Results, then the compound that gave them:

| first-order primary biodegradation rate constant k [1] | first-order primary biodegradation rate constant k [2] | first-order primary biodegradation rate constant k [3] | first-order primary biodegradation rate constant k [4] | first-order primary biodegradation rate constant k [5] | first-order primary biodegradation rate constant k [6] | first-order primary biodegradation rate constant k [7] | first-order primary biodegradation rate constant k [8] | first-order primary biodegradation rate constant k [9] | first-order primary biodegradation rate constant k [10] | first-order primary biodegradation rate constant k [11] | first-order primary biodegradation rate constant k [12] | first-order primary biodegradation rate constant k [13] | first-order primary biodegradation rate constant k [14] | first-order primary biodegradation rate constant k [15] | Structure (SMILES) |
| --- | --- | --- | --- | --- | --- | --- | --- | --- | --- | --- | --- | --- | --- | --- | --- |
| 0.469 | 0.54 | 0.204 | 0.42 | 0.418 | 0.275 | 0.194 | 0.0324 | 0.374 | 0.186 | 0.52 | 0.556 | 0.429 | – | – | CCCCC(=O)N(Cc1ccc(-c2ccccc2-c2nnn[nH]2)cc1)[C@H](C(=O)O)C(C)C [Valsartan] |
| 0.0889 | 0.143 | – | 0.0196 | 0.0964 | – | – | – | 1.1 | – | – | – | – | 0.063 | – | Cc1cc(NS(=O)(=O)c2ccc(N)cc2)no1 [Sulfamethoxazole] |
| 0.0901 | 0.0769 | 0.0208 | 0.0823 | – | 0.0358 | 0.0243 | – | 0.11 | 0.0409 | 0.0581 | 0.034 | 0.0607 | 0.0249 | 0.0306 | CC(C)(Oc1ccc(Cl)cc1)C(=O)O [Clofibric acid] |
| – | 0.0266 | – | – | – | – | – | 0.166 | – | – | – | – | – | – | – | NS(=O)(=O)c1cc2c(cc1Cl)N=CNS2(=O)=O [Chlorothiazide] |
